{"source": "patent US6770738B1", "about": "“Higher order structure and binding of peptide nucleic acids” (ISIS Pharmaceuticals, Inc., priority 1992, dated 2004)", "type_in_all_cases": "biochemical", "key": {"[1]": {"tested_on": "pTlO plasmid (dA10/dT10 insert) and corresponding plasmids linearized with CfrlOI", "test": "Site-specific S1 nuclease digestion of linearized plasmid complexed with PNA", "settings": "145 units S1 nuclease, room temperature; each PNA with its corresponding plasmid", "method": "PNA H-T10-LysNH2 (SEQ ID NO:2) was synthesized as described in Example 1. A pTlO plasmid was prepared from the pUC19 plasmid by inserting the dA10/dT10 (SEQ ID NO:3) sequence into the BamHl site of the polylinker as per the method of Egholm, N et al., J.A.C.S. 1992 114:1895-1897. The pTlO plasmid was linearized with CfrlOI restriction enzyme in the unique site. To form complex with the PNA, about0.1 μg of the linearized plasmid was incubated with 2 o.u./ml of PNA in 3 μl of the TE buffer (10 mM Tris-HCl; 1 mM EDTA, pH 7.4) at 37° C. To perform the S1 nuclease reaction, 10 μl of Na-Acetate buffer (33 mM NaAc; 50 mM NaCl; 10 mM ZnSO4; 0.5% of glycerol, pH 4.6) and 145 units of S1 nuclease (Sigma) were added and incubated for various time periods at room temperature. The reaction was terminated by adding 1 μl of 0.5 M EDTA and cooling to −20° C. Electrophoresis was performed in 1% agarose gel in the TBE buffer with subsequent staining with ethidium bromide. The results of this example are shown in FIG. 1 wherein the size of the markers are shown as are the incubation time periods. In FIG. 8 Lane 1: control—preincubation of DNA with PNA was performed under conditions unfavorable for complex formation (200 mM of NaCl). Lane 2: the reference band obtained by digestion with BamHI restriction enzyme. Lane 3: reference bands obtained by the digestion with Bgll restriction enzyme. […]"}, "[2]": {"tested_on": "Taq DNA polymerase primer extension on pAIOKS", "test": "Inhibition of Taq DNA polymerase primer extension by PNA", "settings": "pre-formed complex, 1 ug PNA", "method": "A mixture of 100 500 ng Pvull cleaved plasmid pAIOKS, 0.1 ug M13 reverse primer and 1 ug of PNA T10-LysNH2(SEQ ID NO:2) in 10 ul buffer ([…], pH 8.3, 50 mM KCl, 1.5 mM MgCl2, 0.1 mg/ml gelatine) was incubated for 5 min at 90° C. and then for 60 min at 37° C. Subsequently, 1 U of Taq polymerase, 1 ul dCTP (100 uM), dGTP (100 uM), dTTP (100 uM) and ^32 P-dATP (1 uCi) were added and the incubation continued for 5 min at 20° C. Following the addition of 2 ul dATP, dCTP, dGTP, dTTP (1 mM each), the sample was incubated for 15 min at 60° C. The DNA was precipitated with ethanol and the samples treated as described for Example 18. The results are shown in FIG. 19: Lane 1: pTIOKS was cut with PvuII and no PNA was present. Lane 2: same as lane one with PNA present. Lane 3: no PNA and PTIOKS was cut with BamHl."}, "[3]": {"tested_on": "pT9CT9C plasmid linearized by CfrlOI", "test": "Site-specific S1 nuclease digestion of plasmid with two PNA sites complexed with PNA", "settings": "30 units S1 nuclease; target sites are for T5CT4", "source_text": "was cloned into the Sal1 site of the pUC19 plasmid. This plasmid, which contained two binding sites for PNA H-T5CT4-LysNH2 (SEQ ID NO:6) separated by six base pairs, was designated pT9CT9C. Strand displacement in the two T5CT4 sites led to opening of the entire region, including the sequence GTCGAC/GACGAC, providing a substrate for the S1 nuclease in both strands. As control, a pT9C-5 plasmid was used, which carried only one T5CT4 (SEQ ID NO:6) insert cloned into the SalI site of the pUC19 plasmid.\ncloned in the Sal1 site of the pUC19 polylinker. The pT9C-5 plasmid carried the single insert A5GA4/CT5 (SEQ ID NO:4) cloned in the same site. The PNA-DNA complexes were prepared as described in Example 2 with the only difference being the duration of the incubation was 2 hours. Digestion by 30 units of the S1 nuclease was performed in the same buffer as described in Example 2 with two exceptions, lanes 2 and 4. In lane 2, 15 units of the enzyme were used, whereas in lane 4 200 mM NaCl and 1 mM of ZnSO4 were added to the buffer. Lane 1: the reference band obtained by digestion with the BamHI restriction enzyme of the pUC 19 plasmid linearized by the CfrlOI restriction enzyme. Lanes 2-4 site-specific digestion by the S1 nuclease of the linearized pT9C plasmid complexed with PNA H-T5CT4-LysNH2 (SEQ ID NO:6). Lanes 5-7: various controls. Lane 8: the same experiment as in lane 3, but using PNA T10 (SEQ ID NO:2) instead of T4CT5 (SEQ ID NO:8). Lane 9: the same experiment as in lane 3, but using PNA T2CT2CT4 (SEQ ID NO:1) instead of T4CT5 (SEQ ID NO:8). Lane 10: the same experiment as in lane 3, but using the pT9C-5 plasmid instead of the pT9C. In the header PNA T5CT4 (SEQ ID NO:6) is labelled as 1, T10 (SEQ ID NO:2) as 2 and T2CT2CT4 (SEQ ID NO:1) as 3.\nThe bands observed by gel electrophoresis have the same position and width as the band created by the BamHI restriction enzyme. […] Moreover, under the much milder S1 nuclease treatment necessary to generate the data for the pT9CT9C, the yield of double-stranded breaks in the pT9C-5 plasmid was extremely low (lane 10)."}}}
{"substance": "H-T10LysNH2 [PNA H-T10-LysNH2]", "values": [{"measurement": "S1 nuclease cutting of linearized plasmid complexed with PNA", "setting": "[1]", "value": "a significant fraction of DNA was cut"}, {"measurement": "primer extension product of Taq DNA polymerase", "setting": "[2]", "value": "a product corresponding in length to blockage at the PNA was produced"}, {"measurement": "S1 nuclease digestion of pT9CT9C plasmid complexed with PNA", "setting": "[3]", "value": "very weak digestion"}]}
